Experimental data: patent publication US20240090503A1, “FUNGICIDAL OXADIAZOLES AND THEIR MIXTURES” (FMC CORPORATION, priority 2020, published 2024)

Experiments:
Format in all cases: in vivo
[1] = test system: Phakopsora pachyrhizi (the causal agent of Asian soybean rust); assay: Test A: preventive spray on soybean seedlings, Asian soybean rust, visual disease rating; conditions: soybean seedlings
Method in brief: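 Preventive test: soybean seedlings received a run-off spray of compound suspended at the set ppm in 50/50 acetone/water plus 250 ppm PEG400, and one day later a P. pachyrhizi spore inoculum. Visual scoring (0 none to 100 full disease control) followed 24 h saturated incubation and 8 days' growth chamber, both at 22° C.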

[2] = test system: Puccinia recondita f. sp. tritici (the causal agent of wheat leaf rust); assay: Test C: preventive spray on wheat seedlings, wheat leaf rust, visual disease rating; conditions: wheat seedlings
Method in brief: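 Wheat seedlings sprayed to run-off with compound in acetone/water (50/50) with 250 ppm PEG400, then inoculated with spores the following day. After 24 h saturated humidity at 20° C. and 6 days in growth chamber at 20° C., disease rated visually as % control relative to untreated controls.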

[3] = test system: Zymoseptoria tritici (the causal agent of wheat leaf blotch); assay: Test B: preventive spray on wheat seedlings, wheat leaf blotch, visual disease rating; conditions: wheat seedlings
Description: General protocol for preparing test suspensions for Tests A-D: the test compounds were first dissolved in acetone in an amount equal to 3% of the final volume and then suspended at the desired concentration (in ppm) in acetone and purified water (50/50 mix by volume) containing 250 ppm of the surfactant PEG400 (polyhydric alcohol esters). The resulting test suspensions were then used in Tests A-D.
The test suspension was sprayed to the point of run-off on wheat seedlings. The following day the seedlings were inoculated with a spore suspension of Zymoseptoria tritici (the causal agent of wheat leaf blotch) and incubated in a saturated atmosphere at 24° C. for 48 h, and then moved to a growth chamber at 20° C. for 17 days, after which time visual disease ratings were made.
The test results for Tests A-C presented in Table A below for compounds of Formula 1 illustrate the fungicidal activity of component (a) contributing to the plant disease control utility of compositions comprising component (a) in combination with component (b) according to the present invention. In the Table, a rating of 100 indicates 100% disease control and a rating of 0 indicates no disease control (relative to the controls). A dash (-) indicates the compound was not tested. The test suspensions were sprayed at the concentration listed in the column “Rate in ppm”, unless otherwise indicated. An asterisk “*” next to the rating indicates a 250 ppm test suspension was used, a double asterisk “**” next to the rating indicates a 100 ppm test suspension was used, and a triple asterisk “***” next to the rating indicates a 50 ppm test suspension was used.

[4] = 10 ppm test suspension, 100 = 100% disease control, 0 = no control
[5] = 50 ppm test suspension, 100 = 100% disease control, 0 = no control

Row | Compound | Test A disease control rating [1, 4] [%] | Test C disease control rating [2, 4] [%] | other results
1 | ON=Cc1cnn(Cc2ccc(-c3noc(C(F)(F)F)n3)cc2)c1 (mixture of isomers) [compound 20] | – | – | Test A disease control rating ([1]; test suspension 250 ppm): 100%; Test C disease control rating ([2]; test suspension 250 ppm): 100%; Test B disease control rating ([3]; test suspension 250 ppm): 99%
2 | CCOC(=O)c1cnn(C(C)c2ccc(-c3noc(C(F)(F)F)n3)cc2)c1 (centres unmarked) [Compound 2, ethyl 1-[1-[4-[5-(trifluoromethyl)-1,2,4-oxadiazol-3-yl]phenyl]ethyl]-1H-pyrazole-4-carboxylate] | – | – | pest or weed control at 10 µg/mL ([1]; Phakopsora pachyrhizi, 216 h, test suspension 10 ppm, 100 = 100% disease control, 0 = no control, read-out: Test A disease control rating): 100%; pest or weed control at 10 µg/mL ([2]; Puccinia recondita, 168 h, test suspension 10 ppm, read-out: Test C disease control rating): 99%; pest or weed control at 100 µg/mL ([3]; Zymoseptoria tritici, 456 h, test suspension 100 ppm (** next to rating), read-out: Test B disease control rating): 98%
3 | CN(C)C(=O)C1=NOC(Cc2ccc(-c3noc(C(F)(F)F)n3)cc2)C1 (centres unmarked) [Compound 12, 4,5-dihydro-N,N-dimethyl-5-[[4-[5-(trifluoromethyl)-1,2,4-oxadiazol-3-yl]phenyl]methyl]-3-isoxazolecarboxamide] | – | – | pest or weed control at 255 µg/mL ([1]; Phakopsora pachyrhizi, 216 h, test suspension 255 ppm): 100%; pest or weed control at 255 µg/mL ([2]; Puccinia recondita, 168 h, test suspension 255 ppm): 100%; pest or weed control at 255 µg/mL ([3]; Zymoseptoria tritici, 456 h, test suspension 255 ppm): 98%
4 | COC(=O)c1cnn(CCc2ccc(-c3noc(C(F)(F)F)n3)cc2)c1 [compound 436] | 100 | 74 | –
5 | CCOC(=O)c1cnn(CCc2ccc(-c3noc(C(F)(F)F)n3)cc2)c1 [compound 437] | 100 | 86 | –
6 | CCCOC(=O)c1cnn(Cc2cc(OC)c(-c3noc(C(F)(F)F)n3)s2)c1 [compound 439] | 0 | 0 | –
7 | C=CCOC(=O)c1cnn(Cc2cc(OC)c(-c3noc(C(F)(F)F)n3)s2)c1 [compound 440] | 0 | 0 | –
8 | CC(=O)Nc1cnn(Cc2ccc(-c3noc(C(F)(F)F)n3)cc2)c1 [compound 441] | 87 | 9 | –
9 | CS(=O)(=O)Nc1cnn(Cc2ccc(-c3noc(C(F)(F)F)n3)cc2)c1 [compound 442] | 44 | 0 | –
10 | CCOC(=O)Nc1cnn(Cc2ccc(-c3noc(C(F)(F)F)n3)cc2)c1 [compound 443] | 100 | 74 | –
11 | FC(F)(F)c1nc(-c2ccc(Cn3ncc4c(I)ccnc43)cc2)no1 [compound 444] | 96 | 86 | –
12 | FC(F)(F)c1nc(-c2ccc(Cn3cc4c(I)ccnc4n3)cc2)no1 [compound 445] | 100 | 99 | –
13 | Nc1nn(Cc2ccc(-c3noc(C(F)(F)F)n3)cc2)c2ncccc12 [compound 446] | 99 | 86 | –
14 | CCCCCOC(=O)c1cnn(Cc2ccc(-c3noc(C(F)(F)F)n3)cc2)c1 [compound 447] | 100 | 100 | –
15 | O=C(OCCCCl)c1cnn(Cc2ccc(-c3noc(C(F)(F)F)n3)cc2)c1 [compound 448] | 100 | 100 | –
16 | O=C(NCC(F)(F)F)c1cnn(Cc2ccc(-c3noc(C(F)(F)F)n3)cc2)c1 [compound 449] | 100 | 100 | –
17 | CCOC(=O)c1cnn(Cc2ccc3cc(-c4noc(C(F)(F)F)n4)ccc3c2)c1 [compound 457] | – | – | Test A disease control rating [1, 5]: 77%; Test C disease control rating [2, 5]: 0%
18 | CN(C)C(=O)C1=NOC(Cc2ccc(-c3noc(C(F)(F)F)n3)s2)C1 (centres unmarked) [compound 460] | – | – | Test A disease control rating [1, 5]: 100%; Test C disease control rating [2, 5]: 99%
19 | COCCNC(=O)C1=NOC(Cc2ccc(-c3noc(C(F)(F)F)n3)s2)C1 (centres unmarked) [compound 461] | – | – | Test A disease control rating [1, 5]: 100%; Test C disease control rating [2, 5]: 100%

Row | Compound | Test A disease control rating [1, 4] [%] | Test C disease control rating [2, 4] [%] | other results
20 | O=C1N(Cc2ccc(-c3noc(C(F)(F)F)n3)cc2)CCc2cncn21 [compound 462] | 100 | 89 | –
21 | COCCCOC(=O)c1cnn(Cc2ccc(-c3noc(C(F)(F)F)n3)cc2)c1 [compound 474] | 100 | 100 | –
22 | O=C(OCCN1CCOCC1)c1cnn(Cc2ccc(-c3noc(C(F)(F)F)n3)cc2)c1 [compound 475] | 100 | 91 | –
23 | CCOC(=O)COC(=O)c1cnn(Cc2ccc(-c3noc(C(F)(F)F)n3)cc2)c1 [compound 476] | 100 | 86 | –
24 | O=C(OCCCl)c1cnn(Cc2ccc(-c3noc(C(F)(F)F)n3)cc2)c1 [compound 477] | 100 | 100 | –
25 | O=C(OCCBr)c1cnn(Cc2ccc(-c3noc(C(F)(F)F)n3)cc2)c1 [compound 478] | – | – | Test A disease control rating [1, 5]: 81%; Test C disease control rating [2, 5]: 19%
26 | O=C(OCc1ccccn1)c1cnn(Cc2ccc(-c3noc(C(F)(F)F)n3)cc2)c1 [compound 479] | 100 | 100 | –
27 | CC(C)CCOC(=O)c1cnn(Cc2ccc(-c3noc(C(F)(F)F)n3)cc2)c1 [compound 480] | 100 | 98 | –
28 | CCC(C)OC(=O)c1cnn(Cc2ccc(-c3noc(C(F)(F)F)n3)cc2)c1 (centres unmarked) [compound 481] | 100 | 100 | –
29 | C=C(Cl)COC(=O)c1cnn(Cc2ccc(-c3noc(C(F)(F)F)n3)cc2)c1 [compound 482] | 100 | 100 | –
30 | O=C(NCc1cccnc1)c1cnn(Cc2ccc(-c3noc(C(F)(F)F)n3)cc2)c1 [compound 483] | 100 | 54 | –
31 | O=C(NCc1ccccc1)c1cnn(Cc2ccc(-c3noc(C(F)(F)F)n3)cc2)c1 [compound 484] | 100 | 100 | –
32 | O=C(Nc1ccccc1)c1cnn(Cc2ccc(-c3noc(C(F)(F)F)n3)cc2)c1 [compound 485] | 100 | 99 | –
33 | C=C(C#N)COC(=O)c1cnn(Cc2ccc(-c3noc(C(F)(F)F)n3)cc2)c1 [compound 486] | 100 | 89 | –
34 | CCCOC(=O)c1cnn(C(C)c2ccc(-c3noc(C(F)(F)F)n3)s2)c1 (centres unmarked) [compound 493] | 100 | 100 | –
35 | Cc1ccc(C(O)c2ccc(-c3noc(C(F)(F)F)n3)cc2)cc1 (centres unmarked) [compound 501] | 100 | 0 | –
36 | FC(F)(F)c1nc(-c2ccc(Cn3ccc(S(F)(F)(F)(F)F)n3)cc2)no1 [compound 503] | 43 | 0 | –
37 | FC(F)(F)c1nc(-c2ccc(Cn3nccc3S(F)(F)(F)(F)F)cc2)no1 [compound 504] | 74 | 0 | –
